Drawing on ChEMBL document CHEMBL5608113, “Targeting of CAF-induced therapy resistance in CRC organoid-stroma co-cultures” (2024), this text covers viability for five molecules.

What all share (type): functional, Homo sapiens
What all share (conditions): Homo sapiens, read-out: Cell Viability; for viability at 10 µM: Concentration 10 uM

In assay [1] the test system is Colon cancer organoid. Kind of assay: Targeting of F14 CAF-induced therapy resistance in O14 CRC organoid-stroma co-culture. Cell viability is reported with Gefitinib.
For assay [2], the system named is Colon cancer organoid. Description: Targeting of F14 CAF-induced therapy resistance in O23 CRC organoid-stroma co-culture. Cell viability is reported with SN-38.
Assay [3] has as its system Colon cancer organoid. Description: Targeting of F14 CAF-induced therapy resistance in O23 CRC organoid-stroma co-culture. Cell viability is reported with Gefitinib.
The subject of assay [4] is Colon cancer organoid. Kind of assay: Targeting of F14 CAF-induced therapy resistance in O14 CRC organoid-stroma co-culture. Cell viability is reported without Gefitinib.
The test system of assay [5] is Colon cancer organoid. Description: Targeting of F14 CAF-induced therapy resistance in O23 CRC organoid-stroma co-culture. Cell viability is reported without Gefitinib.

Each structure is given as a SMILES string.

Broadly, the viability is a read-out of living cells in per cent, often relative to untreated cells. `CNCc1ccccc1-c1csc([C@@H](C)Nc2nc(C)nc3cc(OC)c(OC)cc23)c1` [BAY-293]: the viability at 10 µM with Colon cancer organoid [1] was 16.6%; in the assay on Colon cancer organoid [2], 50.2%; in the assay with Colon cancer organoid [3], 35%; in the assay with Colon cancer organoid [4], 64%; in the assay on Colon cancer organoid [5] it was 69.8%.

As for `Nc1cnc(N2CCc3cc(S(=O)(=O)Nc4c(F)cc(Cl)cc4F)cc(N4CCCC4=O)c32)nc1` [TP-020n], the viability at 1 µM with Colon cancer organoid [1] (Concentration 1 uM) was determined as 71.3%; with Colon cancer organoid [2] (Concentration 1 uM) it was 64.8%; in the assay with Colon cancer organoid [3] (Concentration 1 uM) it was 45.8%; in the assay with Colon cancer organoid [4] (Concentration 1 uM), 104%; with Colon cancer organoid [5] (Concentration 1 uM), 115%.

In the case of `COc1cccc2c1C(=O)c1c(O)c3c(c(O)c1C2=O)CC(O)(C(=O)CO)CC3OC1CC(N)C(O)C(C)O1` (stereo not given), the viability at 10 µM in the assay with Colon cancer organoid [1] stood at 0.921%; in the assay on Colon cancer organoid [2], 5.38%; in the assay with Colon cancer organoid [3], 1.62%; with Colon cancer organoid [4], 1.66%; with Colon cancer organoid [5], 3.9%.

For the molecule `CNCCN1CCC(OCc2ccccc2)CC1`, the viability at 10 µM was 43.9% with Colon cancer organoid [1]; 69.2% in the assay on Colon cancer organoid [2]; 59.5% with Colon cancer organoid [3]; 42.5% in the assay with Colon cancer organoid [4]; 139% with Colon cancer organoid [5].

For `C[C@@H]1CN(c2cc(-c3nn(C)c4ccc(OC5(C)CC5)cc34)ncn2)C[C@H](C)O1` [MLi-2-NC], the viability at 10 µM with Colon cancer organoid [1] was 28.6%; in the assay with Colon cancer organoid [2] it was 62.4%; with Colon cancer organoid [3], 40.9%; with Colon cancer organoid [4] it was 77.2%; in the assay with Colon cancer organoid [5], 107%.
